Measured values: patent US20260056204A1, “COMPOSITIONS AND METHODS FOR CHEMOPROTEOMIC REAGENT SYNTHESIS AND APPLICATION” (The Regents of the University of California, priority 2023, published 2026)

System: cysteines in HEK293T cell lysates
Assay: competitive ABPP workflow with DADPS capture reagents
Type: biochemical
Source text: To obtain an isotopically enriched DADPS capture reagent, the synthesis and application of heavy L-valine (^13C5 ^15N)— containing reagent NBIV-010 was focused on, as the relatively large +6 Da mass difference is ideal for MS1-based quantification. Further motivating the isotopic reagent design, a +6-mass difference is used in isoTOP-ABPP and isoDTB reagents together with the previously reported heavy and light azido-biotin reagents, which was envisioned could facilitate head-to-head comparisons. Using the same synthetic strategy, heavy reagent NBIV-010 was obtained in 58% yield. […] These reagents in a were further validated in a competitive ABPP workflow. Using HEK293T cell lysates, samples were subjected to either vehicle, DMSO, or 500 μM KB02. Upon labeling with IAA and clicking the samples with either heavy or light DADPS probe (NBIV-010 or NBIV-009, respectively; FIG. 4B) or heavy or light biotin azide, the samples were subjected to SP3 cleanup. After enrichment with either streptavidin resin, for DADPS labeled peptides, or NeutrAvidin resin, for biotin azide labeled peptides, the peptides were cleaved or eluted off resin, respectively, and analyzed by LC-MS/MS. […]

COc1ccc2c(c1)CCCN2C(=O)CCl [KB02]
cysteines with ratios>2 shared by DADPS and biotin azide datasets (high confidence KB02-labeled sites) (500 μM KB02): 163
cysteines found in peptides with Log2 MS1 extracted ion chromatograph area ratios>2 (cysteines modified by KB02; ligandable cysteines) (500 μM KB02 vs DMSO, heavy/light DADPS probes NBIV-010/NBIV-009, three biological replicates): 404
